Laboratory results published in patent publication US9227977B2, “Phosphoinositide 3-kinase inhibitors” (RESPIVERT LTD., priority 2013, dated 2016).

Assays:
[1] = test system: cigarette smoke-induced cell accumulation and biomarkers in murine BALF; test: Cigarette smoke model; format: in vivo, mouse; details: for % inhibition, Macrophages in BAL / % inhibition, Neutrophils in BAL / Cell numbers in BAL, Macrophages / Cell numbers in BAL, Neutrophils: mice, CS, intra-nasal; for Cell numbers in BAL, Macrophages / Cell numbers in BAL, Neutrophils: mean ± SEM; for Inhibition (%) of CXCL1 in BALF / Inhibition (%) of IL-17 in BALF / Inhibition (%) of MCP-1 in BALF / Inhibition (%) of MDA in BALF / Inhibition (%) of Osteopontin in BALF / Inhibition (%) of TNF α in BALF: with respect to tobacco
Method: A/J mice (males, 5 weeks old) were exposed to cigarette smoke (4% cigarette smoke, diluted with compressed air) for 30 min/day for 11 days using a Tobacco Smoke Inhalation Experiment System for small animals (Model SIS-CS; Sibata Scientific Technology, Tokyo, Japan). Test substances were administered once daily for 3 days after the final cigarette smoke exposure (intra-nasal dose comprising 35 μL of solution in 50% DMSO/isotonic saline).
At 12 hr after administration of the last dose, animals were anesthetized, the trachea was cannulated and bronchial alveolar lavage (BAL) was carried out by the instillation into and then withdawal from the lungs, of PBS (100 mL/kg). Total cell numbers in the BALF samples were measured using a haemocytometer under a phase-contrast microscope. The proportions of alveolar macrophages and neutrophils were determined by FACS analysis using anti-mouse MOMA2-FITC (macrophage) or anti-mouse 7/4 (neutrophil).
Cells were suspended in PBS and were incubated with anti-MOMA2-FITC (2 μg/mL, Catalogue no SM065F, Acris Antibodies GmbH, Herford, Germany) or anti-7/4-FITC (2 μg/mL, Catalogue no CL050F, Acris Antibodies GmbH, Herford, Germany) for 30 min at 30° C., and also counterstained with propidium iodide (2 μg/mL) to allow exclusion of necrotic cells. The cells were washed with PBS, and transferred to FACS tubes. Samples was set in a flow cytometer (ALTRA II; Beckman Coulter Japan, Tokyo, Japan), and a single-parameter FL2 [PMT2] (FITC) histogram with log x-axis was plotted to illustrate relative intensity of FITC.
Data files are stored for subsequent analysis using Kaluza analysis software (ver. 1.2) to calculate the proportion of each cell type. The levels of CXCL1(KC), MCP1, TNFα, IL-17 or osteopontin in BALF were determined using Quentikine® mouse KC, MCP1, TNFα, IL-17 or osteopontin ELISA kit (R&D systems, Inc., Minneapolis, Minn., USA). The presence of malondialdehyde was measured using OxiSelect® TBARS Assay Kit (MDA Quantitation; Cell Biolabs Inc, San Diego, Calif., USA).

PI3K δ = PI3K δ (Homo sapiens (Human), UniProt O00329); test: PI3K δ cell based assay: H2O2-induced Akt phosphorylation in d-U937 cells; details: inhibition of induced Akt phosphorylation, H2O2 stimulus; read-out: REC50 values in d-U937 cells, H2O2 stimulus
Method: As a means of assessing PI3K δ activation in response to stimuli, the phosphorylation status of the protein, Akt, a downstream product of PI3Kδ, signaling was determined.
U937 cells, obtained from a human, leukemic, monocyte lymphoma cell line, were differentiated to macrophage-type cells by incubation with PMA (100 ng/mL) for 48 to 72 hr. Cells were then pre-incubated with either the test compound or vehicle for 2 hr and were then stimulated briefly by exposure to H2O2 (10 mM, 5-7 min) and the reaction stopped by replacing the media with 4% formaldehyde solution. […] After washing with buffer (PBS containing 0.1% Triton X-100), cells were incubated with an HRP-conjugated secondary antibody (Dako) and the resultant signal was determined colorimetrically (OD: 450 nm with a reference wavelength of 655 nm) using TMB substrate (substrate reagent pack supplied by R&D Systems, Inc.).
This reaction was stopped by the addition of H2SO4 solution (100 μL). […] After washing with buffer (PBS containing 0.1% Triton X-100) 1% SDS (100 μL) was added to each well and the plates were shaken lightly for 1 hr prior to measuring the absorbance at 595 nm (Varioskan® Flash, Thermo-Fisher Scientific). The measured OD450-655 readings were corrected for cell number by dividing the OD450-655 by the OD595 readings. The ratio of pAkt signal to total Akt signal was used to quantitate the extent of PI3K δ activation. […]

Chain of PI3K δ (O00329 whole entry): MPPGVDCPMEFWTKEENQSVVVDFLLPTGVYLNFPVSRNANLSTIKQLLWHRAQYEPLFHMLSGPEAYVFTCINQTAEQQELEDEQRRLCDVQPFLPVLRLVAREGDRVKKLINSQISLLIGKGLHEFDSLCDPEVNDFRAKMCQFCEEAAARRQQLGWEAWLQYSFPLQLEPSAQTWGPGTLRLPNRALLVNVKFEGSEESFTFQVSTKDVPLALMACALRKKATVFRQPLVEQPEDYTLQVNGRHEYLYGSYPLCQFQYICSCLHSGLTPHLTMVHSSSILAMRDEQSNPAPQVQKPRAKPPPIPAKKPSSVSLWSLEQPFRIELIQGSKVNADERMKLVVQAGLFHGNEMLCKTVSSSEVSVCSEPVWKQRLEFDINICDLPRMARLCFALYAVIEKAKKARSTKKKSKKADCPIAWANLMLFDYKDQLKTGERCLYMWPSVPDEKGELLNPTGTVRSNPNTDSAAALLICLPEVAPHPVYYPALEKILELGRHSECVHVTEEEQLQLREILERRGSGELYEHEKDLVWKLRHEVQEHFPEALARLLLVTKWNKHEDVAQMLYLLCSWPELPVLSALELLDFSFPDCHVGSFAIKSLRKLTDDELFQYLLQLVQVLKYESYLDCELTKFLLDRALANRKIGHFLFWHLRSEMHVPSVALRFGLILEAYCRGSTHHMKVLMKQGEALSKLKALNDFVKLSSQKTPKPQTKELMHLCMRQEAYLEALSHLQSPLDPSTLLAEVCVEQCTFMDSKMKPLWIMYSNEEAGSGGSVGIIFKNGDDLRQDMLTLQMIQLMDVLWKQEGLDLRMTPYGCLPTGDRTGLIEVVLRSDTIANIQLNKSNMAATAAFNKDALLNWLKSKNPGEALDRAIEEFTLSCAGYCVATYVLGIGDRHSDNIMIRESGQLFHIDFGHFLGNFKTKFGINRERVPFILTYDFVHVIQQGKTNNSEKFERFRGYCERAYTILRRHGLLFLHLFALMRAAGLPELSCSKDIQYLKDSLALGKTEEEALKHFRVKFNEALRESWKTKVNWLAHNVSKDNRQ
Chain of PI3K δ (P27986 whole entry partner): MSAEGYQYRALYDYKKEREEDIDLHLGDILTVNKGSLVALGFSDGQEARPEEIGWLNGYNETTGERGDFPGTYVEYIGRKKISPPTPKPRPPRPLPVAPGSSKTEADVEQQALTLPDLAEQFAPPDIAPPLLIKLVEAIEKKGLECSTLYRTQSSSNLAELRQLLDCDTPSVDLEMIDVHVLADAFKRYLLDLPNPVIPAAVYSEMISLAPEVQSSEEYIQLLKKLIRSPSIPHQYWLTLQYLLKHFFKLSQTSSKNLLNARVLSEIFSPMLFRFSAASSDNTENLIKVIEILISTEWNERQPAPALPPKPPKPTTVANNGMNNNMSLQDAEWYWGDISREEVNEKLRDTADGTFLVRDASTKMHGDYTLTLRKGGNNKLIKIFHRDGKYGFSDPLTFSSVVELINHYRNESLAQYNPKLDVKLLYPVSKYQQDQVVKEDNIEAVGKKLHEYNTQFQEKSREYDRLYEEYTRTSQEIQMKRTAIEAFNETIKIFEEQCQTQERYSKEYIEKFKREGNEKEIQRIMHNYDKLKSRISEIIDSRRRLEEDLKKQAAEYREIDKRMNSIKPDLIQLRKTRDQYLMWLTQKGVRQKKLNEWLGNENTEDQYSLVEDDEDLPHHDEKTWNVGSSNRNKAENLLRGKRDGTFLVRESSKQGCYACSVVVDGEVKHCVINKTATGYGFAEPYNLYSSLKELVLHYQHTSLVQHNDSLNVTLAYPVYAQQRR

COCCOCCOCC#Cc1cccc2nc(Cn3nc(-c4cc(O)cc(F)c4)c4c(N)ncnc43)n(Cc3ccccc3C(F)(F)F)c(=O)c12 [Compound (I), 2-((4-Amino-3-(3-fluoro-5-hydroxyphenyl)-1H-pyrazolo[3,4-d]pyrimidin-1-yl)methyl)-5-(3-(2-(2-methoxyethoxy)ethoxy)prop-1-yn-1-yl)-3-(2-(trifluoromethyl)benzyl)quinazolin-4(3H)-one]
potency versus compound A on cigarette-smoke induced cell accumulation in murine BALF (in words) ([1]; contemporaneous study): more potent inhibitor | % inhibition, Macrophages in BAL ([1]; 0.02 mg/mL): 32% | % inhibition, Neutrophils in BAL ([1]; 0.02 mg/mL): 26% | Cell numbers in BAL, Macrophages ([1]; 0.02 mg/mL): 13.6 ± 0.2 x10^4/mL | Cell numbers in BAL, Neutrophils ([1]; 0.02 mg/mL): 8.6 ± 0.2 x10^4/mL | % inhibition, Macrophages in BAL ([1]; 0.2 mg/mL): 63% | % inhibition, Neutrophils in BAL ([1]; 0.2 mg/mL): 54% | Cell numbers in BAL, Macrophages ([1]; 0.2 mg/mL): 9.5 ± 0.2 x10^4/mL | Cell numbers in BAL, Neutrophils ([1]; 0.2 mg/mL): 6.0 ± 0.1 x10^4/mL | % inhibition, Macrophages in BAL ([1]; 2 mg/mL): 79% | % inhibition, Neutrophils in BAL ([1]; 2 mg/mL): 68% | Cell numbers in BAL, Macrophages ([1]; 2 mg/mL): 7.4 ± 0.3 x10^4/mL | Cell numbers in BAL, Neutrophils ([1]; 2 mg/mL): 4.6 ± 0.1 x10^4/mL | Inhibition (%) of CXCL1 in BALF ([1]; Compound (I) 0.02 mg/mL): 32% | Inhibition (%) of IL-17 in BALF ([1]; Compound (I) 0.02 mg/mL): 27% | Inhibition (%) of MCP-1 in BALF ([1]; Compound (I) 0.02 mg/mL): 28% | Inhibition (%) of MDA in BALF ([1]; Compound (I) 0.02 mg/mL): 25% | Inhibition (%) of Osteopontin in BALF ([1]; Compound (I) 0.02 mg/mL): 22% | Inhibition (%) of TNF α in BALF ([1]; Compound (I) 0.02 mg/mL): 22% | Inhibition (%) of CXCL1 in BALF ([1]; Compound (I) 0.2 mg/mL): 52% | Inhibition (%) of IL-17 in BALF ([1]; Compound (I) 0.2 mg/mL): 41% | Inhibition (%) of MCP-1 in BALF ([1]; Compound (I) 0.2 mg/mL): 45% | Inhibition (%) of MDA in BALF ([1]; Compound (I) 0.2 mg/mL): 42% | Inhibition (%) of Osteopontin in BALF ([1]; Compound (I) 0.2 mg/mL): 44% | Inhibition (%) of TNF α in BALF ([1]; Compound (I) 0.2 mg/mL): 38% | Inhibition (%) of CXCL1 in BALF ([1]; Compound (I) 2 mg/mL): 71% | Inhibition (%) of IL-17 in BALF ([1]; Compound (I) 2 mg/mL): 60% | Inhibition (%) of MCP-1 in BALF ([1]; Compound (I) 2 mg/mL): 78% | Inhibition (%) of MDA in BALF ([1]; Compound (I) 2 mg/mL): 64% | Inhibition (%) of Osteopontin in BALF ([1]; Compound (I) 2 mg/mL): 63% | Inhibition (%) of TNF α in BALF ([1]; Compound (I) 2 mg/mL): 62% | EC50 (PI3K δ): 7.4 nM
